# Biological target: T1, long form of human GPR120 (Homo sapiens, UniProt Q5NUL3)
# T1 construct: host or cells: PathHunter CHO-K1 GPR120 β-Arrestin Cell Line
# T1 sequence (Q5NUL3 1-377 isoform Q5NUL3-1): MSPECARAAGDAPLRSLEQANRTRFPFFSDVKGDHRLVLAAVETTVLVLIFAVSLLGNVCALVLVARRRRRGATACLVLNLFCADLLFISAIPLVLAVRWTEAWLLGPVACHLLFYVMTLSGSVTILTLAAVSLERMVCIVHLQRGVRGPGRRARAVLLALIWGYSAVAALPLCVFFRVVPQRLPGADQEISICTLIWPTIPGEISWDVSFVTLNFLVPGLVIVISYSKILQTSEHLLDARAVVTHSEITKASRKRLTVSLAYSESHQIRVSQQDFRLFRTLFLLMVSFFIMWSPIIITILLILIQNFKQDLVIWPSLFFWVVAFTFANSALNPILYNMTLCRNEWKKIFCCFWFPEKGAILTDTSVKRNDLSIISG
# Assay: Human GPR120 DiscoveRx PathHunter beta-arrestin assay, Procedure β-arrestin A
# Type: cell-based
# Conditions: PathHunter CHO-K1 GPR120 β-Arrestin cells, 3000 cells per well; read-out: hGPR120 β-arrestin A EC50
# Description: The binding of an agonist (medium/long chain fatty acids or small molecule agonists) to the G-protein-coupled receptor GPR120 activates phospholipase C, leading to release of intracellular Ca^+2 through the generation of inositol 1,4,5-trisphosphate (InsP3 or IP3). GPR120 activation can also trigger intracellular signaling via recruitment of Beta-Arrestin. In the present method, agonist-induced activation of the human GPR120 receptor is monitored through the use of PathHunter CHO-K1 GPR120 Beta-Arrestin Cell Line engineered by DiscoveRx, as detailed below. The cell lines are designed to co-express both the ProLink/Enzyme Donor (PK)-tagged GPCR and the Enzyme […] (EA)-tagged Beta-Arrestin fusion proteins. Upon GPR120 receptor stimulation/activation, the EA-tagged Beta-Arrestin portion is translocated to the tagged receptor, where the two enzyme fragments are brought within close proximity. Under these conditions, these fragments can interact and form an active Beta-gal enzyme complex through Enzyme Fragment Complementation (EFC). […] This in vitro assay therefore serves to assess compound agonist activity of the GPR120.
# In Procedure β-arrestin A, the cell used were PathHunter CHO-K1 GPR120 β-Arrestin Cell Line, expressing the long form of human GPR120 (Genbank accession number NM_181745), with 3000 cells per well.
# The selected CHO-K1 GPR120 β-Arrestin cells were cultured in Ham's F12 media supplemented with 10% fetal bovine serum (FBS), 1% Glutamine, 1×p/s, 800 μg/mL G418 and 300 μg/mL Hygromycin B (for selection). Cell stocks were maintained and grown in a sub-confluent state using standard cell culture procedures. The day before the experiment, the cells were harvested with non-enzymatic cell dissociation buffer and re-suspended in complete growth media at the desired concentration. […] The seeded plates were incubated overnight at 37° C.
# On the day of the experiment, the Assay Buffer containing (a) HBSS with Ca^++ and Mg^++, (b) 20 mM HEPES, and (c) 0.1% BSA stabilizer (pH 7.4) was prepared. The growth medium was gently removed from the cell plates and 20 μL of Assay Buffer added to each well. The plate was then incubated at 37° C. for 60 min. […] Five μL of compound dilution was then added to each well and the plate incubated at 37° C. for 90 min. The detection reagents were prepared according to the manufacture's instruction. Twelve μL of the detection reagents were added to each well and the plate incubated at room temperature for 60 min.
# The % activity relative to the positive control was calculated using the following equation:
# The Fitting Equation was: Y=Bottom+(Top-Bottom)/(1+10^((Log EC50−X)*HillSlope)), where X is the log of the concentration and Y is the response.
row,EC50,Compound
1,97 nM,"O=C(O)CCc1cc(F)c(OCc2sc(Cl)cc2-c2ccc(Cl)cc2)c(F)c1 [Cpd 2, 3-(4-{[5-Chloro-3-(4-chlorophenyl)thiophen-2-yl]methoxy}-3,5-difluorophenyl)propanoic acid]"
2,431 nM,"Cc1sc(-c2ccccc2)c(COc2ccc(CCC(=O)O)c(C)c2C)c1C(F)(F)F [Cpd 33, 3-(2,3-Dimethyl-4-{[5-methyl-2-phenyl-4-(trifluoromethyl)thiophen-3-yl]methoxy}phenyl)propanoic acid]"
3,28 nM,"OCCCc1cc(F)c(OCc2c(Cl)nsc2-c2ccc(Cl)cc2)c(F)c1 [Cpd 78, 3-(4-{[3-Chloro-5-(4-chlorophenyl)isothiazol-4-yl]methoxy}-3,5-difluorophenyl)propan-1-ol]"

# Source: patent publication US10118922B2 (Janssen Pharmaceutica NV, priority 2013, dated 2018)
